Measurements from patent US20230263897A1, “CONJUGATE OF GALNAC AND SAPONIN, […] COMPOSITION COMPRISING SAID CONJUGATE AND A GALNAC-OLIGO[…]” (SAPREME TECHNOLOGIES B.V., priority 2020, published 2023).
[BNANC] = BNA^NC bridged nucleic acid sugar; {ThiolC6} = Thiol C6 linker; d = 2'-deoxy (DNA)

Experiments:
ApoB RNA [1] = experiment: ApoB RNA expression analysis in liver tissue of C57BL/6J mice; type: in vivo
Experimental: (§1) • Dose administration and in-life phase. Per group, 8 C57BL/6J male mice for treatment groups and 14 in vehicle control group, approximately 6-7 weeks at arrival and 8-9 weeks at dosing, were dosed. The compounds, formulated in PBS or PBS alone (vehicle) according to Table A5, were dosed at 5 ml/kg in the tail vain (intravenously, iv), with dose volumes corresponding to the individual bodyweights. Where applicable, trivalent GalNAc-SO1861-EMCH was co-administered at 5 ml/kg in the tail vain (iv) right after the trivalent GalNAc-ApoB conjugate. Animals were weighed weekly and clinical observations were performed 2-3 times daily within the first 48 hrs, and at least once daily thereafter until study end. • Sampling of serum, liver, and kidney tissue. […] One half of the liver and one kidney was frozen and used for tissue RNA analysis.
The mRNA was isolated from frozen liver tissue using TRzol® Reagent (Thermo Scientific) according to the manufacturer's instruction. Conversion into cDNA was performed using Script™ cDNA Synthesis Kit (BioRad). ApoB expression levels and levels of specific liver housekeeping genes were determined using quantitative real-time PCR assays (qRT-PCR) using iTaq™ Universal SYBR® Green Supermix (BioRad) and the Light Cycler 480 (Roche Diagnostics, Rotkreuz, Switzerland) with specific DNA primers, listed in Table A5. Analysis was done by the ΔCt method to determine ApoB expression relative to 2 liver-specific housekeeping control mRNAs. Each analysis reaction was performed in triplicate.

LDL-cholesterol = experiment: Serum LDL-cholesterol analysis in C57BL/6J mice; type: in vivo
Experimental: as §1
LDL-cholesterol was measured in mouse serum, using an LDL-cholesterol specific two-step AU480 assay kit, respectively, from Beckman Coulter, with a photometric measurement according to the manufacturer's instructions.

[2] = In vivo tolerability (clinical observations, body weight) in C57BL/6J mice; settings: doses and dose regimen of Table A5, iv, up to 336 hrs
Experimental: During the study period, ALT levels for vehicle mice ranged from an average 47 to 61 U/L per group (n=6 animals for vehicle).
as §1

ApoB RNA [3] = experiment: ApoB RNA expression analysis in mouse primary hepatocytes; type: cell-based; settings: alone
From the text: Cryopreserved primary mouse hepatocytes ([…] Cell Culture Technology GmbH, Germany) were thawed in hepatocyte thawing media (HTM, […] Cell Culture Technology GmbH, Germany) and washed 1× with hepatocyte wash media (HWM, […] Cell Culture Technology GmbH, Germany). Cells were re-suspended in hepatocyte plating media (HPM Cryo, […] Cell Culture Technology GmbH, Germany) at a density of approx. 0.275×10^6 cells/ml.
RNA from cells was isolated using TRI Reagent® Solution (Thermo Scientific) according to the manufacturer's instruction. Conversion into cDNA was performed using iScript™ cDNA Synthesis Kit (BioRad) using standard protocols. ApoB expression levels and levels of specific hepatocyte housekeeping genes were determined using quantitative real-time PCR assays (qRT-PCR) using iTaq™ Universal SYBR® Green Supermix (BioRad) and the Light Cycler 480 (Roche Diagnostics, Rotkreuz, Switzerland) with specific DNA primers, listed in Table A4. Analysis was done by the ΔCt method to determine ApoB expression relative to 2 hepatocyte-specific housekeeping control mRNAs. Each analysis reaction was performed in triplicate.

With “ApoB #02: murine and human sequence-compatible ApoB BNA(NC) antisense oligo 5′-GCattggtatTCA-3′ [SEQ ID NO: 12] (antisense GCATTGGTATTCA; sugars from the 5' end [BNANC]2 d8 [BNANC]3, all phosphorothioate, 5' {ThiolC6}, methylation of C not given here)” the “reduction of liver ApoB RNA levels compared to vehicle” value (“reduction of liver ApoB RNA levels” below) (ApoB RNA [1]; 0.1 mg/kg iv alone, 24 hrs) was “not noticeably reduced”, the “reduction of liver ApoB RNA levels” value (ApoB RNA [1]; 1 mg/kg iv alone, 24 hrs) was roughly 15% and the “reduction of liver ApoB RNA levels” value (ApoB RNA [1]; 2 mg/kg iv alone, 24 hrs) was roughly 21%. For the same substance, the “reduction of liver ApoB RNA levels” value (ApoB RNA [1]; 2 mg/kg iv alone, 72 hrs) was 39%, the “reduction of liver ApoB RNA levels” value (ApoB RNA [1]; 2 mg/kg iv alone, 336 hrs) was 30% and the “reduction of serum LDL-C compared to vehicle” value (LDL-cholesterol; 0.1 mg/kg iv alone, 24 hrs) was “not noticeably reduced”. For the same substance, the “reduction of serum LDL-C compared to vehicle” value (LDL-cholesterol; 1 mg/kg iv alone, 24 hrs) was “not noticeably reduced”, the “reduction of serum LDL-C compared to vehicle” value (LDL-cholesterol; 2 mg/kg iv alone, 24 hrs) was “not noticeably reduced” and the “reduction of serum LDL-C compared to vehicle” value (LDL-cholesterol; 2 mg/kg iv alone, 72 hrs) was 50%. The “reduction of serum LDL-C” value (LDL-cholesterol; 2 mg/kg iv alone, 336 hrs) was 40%, the “tolerability (clinical observations, adverse findings)” value [2] was “well tolerated” and the IC50 (ApoB RNA [3]; 72 hrs, read-out: IC50 ApoB RNA down-modulation) was 20 nM. For the same substance, the “fold less potent in ApoB RNA down-modulation than (GalNAc)3-ApoB #02 combined with SO1861-EMCH or (GalNAc)3-SO1861” value (ApoB RNA [3]) was 100-667 fold.
